Experimental findings from patent publication US10981926B2 (Janssen Pharmaceutica NV, priority 2016, dated 2021) are described below.

Test [1] deals with T1, wild-type Androgen Receptor (AR-wt) (Homo sapiens (Human), UniProt P10275). The test is described as follows: LNCaP-AR-wt ANT reporter assay (antagonist mode). Conditions: for IC50: antagonist mode, pIC50 = −Log10(IC50 in Molar), read-out: LNCaP-AR-wt ANT pIC50 (converted); for Emax: maximum % inhibition of R1881 control response over the tested concentration range, read-out: LNCaP-AR-wt ANT MAX % Inh. Format: cell-based. (In a reporter assay the amount or activity of a reporter protein is the signal.)
T1 sequence (P10275 whole entry): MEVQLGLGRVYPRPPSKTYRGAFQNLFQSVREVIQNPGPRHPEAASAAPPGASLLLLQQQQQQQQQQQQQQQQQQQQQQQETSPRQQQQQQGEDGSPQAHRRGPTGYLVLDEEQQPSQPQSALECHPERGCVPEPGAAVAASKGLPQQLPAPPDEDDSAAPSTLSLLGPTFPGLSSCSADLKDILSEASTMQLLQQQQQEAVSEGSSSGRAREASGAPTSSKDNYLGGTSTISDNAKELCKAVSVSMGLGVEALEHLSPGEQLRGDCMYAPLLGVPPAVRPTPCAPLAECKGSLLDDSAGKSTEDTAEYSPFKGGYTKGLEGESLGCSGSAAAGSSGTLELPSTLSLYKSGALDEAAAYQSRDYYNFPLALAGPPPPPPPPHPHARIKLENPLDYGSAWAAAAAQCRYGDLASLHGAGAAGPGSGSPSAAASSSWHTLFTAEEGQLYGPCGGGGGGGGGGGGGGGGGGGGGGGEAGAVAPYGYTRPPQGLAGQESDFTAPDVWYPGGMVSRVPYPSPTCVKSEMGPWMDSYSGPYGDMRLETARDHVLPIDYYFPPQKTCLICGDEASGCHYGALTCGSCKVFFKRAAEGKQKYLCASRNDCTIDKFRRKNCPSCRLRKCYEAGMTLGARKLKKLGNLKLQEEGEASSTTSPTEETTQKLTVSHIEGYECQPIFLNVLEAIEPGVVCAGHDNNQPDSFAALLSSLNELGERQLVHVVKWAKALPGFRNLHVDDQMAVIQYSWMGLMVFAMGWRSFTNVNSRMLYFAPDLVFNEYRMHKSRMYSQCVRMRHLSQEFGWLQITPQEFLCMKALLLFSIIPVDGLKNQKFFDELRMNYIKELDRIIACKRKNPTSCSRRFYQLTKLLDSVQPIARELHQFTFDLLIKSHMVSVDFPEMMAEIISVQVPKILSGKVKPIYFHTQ

Test [2] deals with rGABA-gated Cl− channel. The test is described as follows: GABA-Gated Cl Channel Antagonist Radioligand Binding Assay. On the set-up: species or system rat. Conditions: 10 μM single point, [35S]-TBPS, cerebral cortex membrane homogenates. As to the method:
GABA-gated C1 Chanel assays were performed at CEREP according to the following method. Membrane homogenates of cerebral cortex (120 μg protein) were incubated for 120 min at 22° C. with 3 nM […] in the absence or presence of the test compound in a buffer containing 50 mM Na2HPO4/KH2PO4 (pH 7.4) and 500 mM NaCl. Nonspecific binding was determined in the presence of 20 μM picrotoxinin. Following incubation, the samples were filtered rapidly under vacuum through glass fiber filters (GF/B, Packard) presoaked with 0.3% PEI and rinsed several times with ice-cold 50 mM Tris-HCl using a 96-sample cell harvester (Unifilter, Packard). The filters were dried then counted for radioactivity in a scintillation counter (Topcount, Packard) using a scintillation cocktail (Microscint 0, Packard). The results are expressed as a percent inhibition of the control radio ligand specific binding. The standard reference compound is picrotoxinin, which was tested in each experiment at several concentrations to obtain a competition curve from which its IC50 was calculated. In this assay, the following representative compounds disclosed herein had recorded activities at a 10 μM single point concentration in the GABA-gated Cl— Channel Binding Assay.

Test [3] concerns the target T1, wild-type Androgen Receptor (AR-wt). Kind of test: LNCaP-AR-wt AG reporter assay (agonist mode). The format is cell-based. Conditions: for EC50: agonist mode, pEC50 = −Log10(EC50 in Molar), read-out: LNCaP-AR-wt AG pEC50 (converted); for Emax: maximum % stimulation (agonist response) over the tested concentration range, read-out: LNCaP-AR-wt AG MAX % Stim.
The target of test [4] is T2, F876L mutant Androgen Receptor (AR-F876L) (Homo sapiens (Human), UniProt P10275, F877L). The test is described as follows: LNCaP-AR-F876L AG reporter assay (agonist mode). Format: cell-based. To be noted: for EC50: agonist mode, pEC50 = −Log10(EC50 in Molar), read-out: LNCaP-AR-F876L AG pEC50 (converted); for Emax: maximum % stimulation (agonist response) over the tested concentration range, read-out: LNCaP-AR-F876L AG MAX % Stim.
T2 sequence (P10275 whole entry F877L): as the sequence (P10275 whole entry) above, with F877L counted along it

The target in test [5] is T2, F876L mutant Androgen Receptor (AR-F876L). The test is described as follows: LNCaP-AR-F876L ANT reporter assay (antagonist mode). Format: cell-based. Conditions: for IC50: antagonist mode, pIC50 = −Log10(IC50 in Molar), read-out: LNCaP-AR-F876L ANT pIC50 (converted); for Emax: maximum % inhibition of R1881 control response over the tested concentration range, read-out: LNCaP-AR-F876L ANT MAX % Inh.

Molecules are shown by their SMILES.

On to `CN1CCC(n2ncc3cc(N4C(=S)N(c5cnc(C#N)c(C(F)(F)F)c5)C(=O)C45CCC5)ccc32)CC1` [Cpd 109, 5-[8-[1-(1-methyl-4-piperidyl)indazol-5-yl]-5-oxo-7-thioxo-6,8-diazaspiro[3.4]octan-6-yl]-3-(trifluoromethyl)pyridine-2-carbonitrile], for which the values for the IC50 in test [1] and in test [5] were 2820 nM and 1350 nM, respectively. Also, the Emax amounted to 96.1% in test [1], 0% in test [3], 0.2% in test [4] and 98.8% in test [5]. Moreover, the “rGABA-gated Cl− channel % inh @10 μM” value in test [2] is given as 20.6%. Besides, the EC50 in test [3] and in test [4] was greater than 15100 nM throughout.
`N#Cc1ncc(N2C(=O)C3(CCC3)N(c3ccc(OC4CCN(C5CC5)CC4)cc3)C2=S)cc1C(F)(F)F` [Cpd 36, 5-[8-[4-[(1-cyclopropyl-4-piperidyl)oxy]phenyl]-5-oxo-7-thioxo-6,8-diazaspiro[3.4]octan-6-yl]-3-(trifluoromethyl)pyridine-2-carbonitrile]: the IC50 in test [1] is 759 nM; in test [5], 631 nM. Besides, the Emax is 100% in test [1], -0.2% in test [3], 1% in test [4] and 99.1% in test [5]. Moreover, in test [2], the “rGABA-gated Cl− channel % inh @10 μM” value was 96.2%. Also, the EC50 in test [3] and in test [4] was greater than 15100 nM throughout.
With `C#CCN1CCC(Oc2ccc(N3C(=S)N(c4cnc(C#N)c(C(F)(F)F)c4)C(=O)C34CCC4)cn2)CC1` [Cpd 104, 5-[5-oxo-8-[6-[(1-prop-2-ynyl-4-piperidyl)oxy]-3-pyridyl]-7-thioxo-6,8-diazaspiro[3.4]octan-6-yl]-3-(trifluoromethyl)pyridine-2-carbonitrile], the IC50 was 69.2 nM in test [1] and 41.7 nM in test [5]. The Emax in test [1] was found to be 101%; in test [3] it was 0.5%; in test [4], 0.7%; in test [5] it was 99.6%. Further, the “rGABA-gated Cl− channel % inh @10 μM” value in test [2] is on record as 98.9%. The EC50 in test [3] and in test [4] was greater than 15100 nM in each case.
With `N#Cc1ncc(N2C(=O)C3(CCC3)N(c3ccc4nn(C5CCNCC5)cc4c3)C2=S)cc1Cl` [Cpd 180, 3-chloro-5-[5-oxo-8-[2-(4-piperidyl)indazol-5-yl]-7-thioxo-6,8-diazaspiro[3.4]octan-6-yl]pyridine-2-carbonitrile], the IC50 in test [1] is 219 nM; in test [5], 97.7 nM. Also, the Emax in test [1] was found to be 106%; in test [3] it was 0.2%; in test [4] it was 0.2%; in test [5], 104%. Further, the “rGABA-gated Cl− channel % inh @10 μM” value in test [2] amounted to 36.7%. Besides, the EC50 in test [3] and in test [4] was greater than 15100 nM each time.
Consider `CNC1CCC(Oc2ccc(N3C(=S)N(c4cnc(C#N)c(C(F)(F)F)c4)C(=O)C34CCC4)cc2)CC1` (stereo not drawn) [Cpd 80, 5-[8-[4-[4-(methylamino)cyclohexoxy]phenyl]-5-oxo-7-thioxo-6,8-diazaspiro[3.4]octan-6-yl]-3-(trifluoromethyl)pyridine-2-carbonitrile], for which the IC50 in test [1] was 25.1 nM; in test [5], 11.2 nM. Further, the Emax is 102% in test [1], 0.6% in test [3], 0.1% in test [4] and 100% in test [5]. The “rGABA-gated Cl− channel % inh @10 μM” value in test [2] is 33.7%. In addition, the EC50 in test [3] and in test [4] was greater than 15100 nM throughout.
On to `N#Cc1ncc(N2C(=O)C3(CCC3)N(c3ccc(O[C@H]4CCNC[C@H]4F)cc3)C2=S)cc1C(F)(F)F` (racemic) [Cpd 96, 5-[8-(3RS, 4SR) [4-[(3-fluoro-4-piperidyl)oxy]phenyl]-5-oxo-7-thioxo-6,8-diazaspiro[3.4]octan-6-yl]-3-(trifluoromethyl)pyridine-2-carbonitrile], for which the IC50 in test [1] was 126 nM; in test [5], 74.1 nM. Besides, the Emax was found to be 100% in test [1], 0.9% in test [3], 0.4% in test [4] and 99.9% in test [5]. The “rGABA-gated Cl− channel % inh @10 μM” value in test [2] is 26.5%. The EC50 in test [3] and in test [4] was greater than 15100 nM throughout.
